Laboratory results as given in PMC12081877 (Nature Communications, 2025).

Assays:
a panel of M^pro mutants = type: biochemical, SARS-CoV-2
ISM3312 P18 virus = type: cell-based, SARS-CoV-2

Row | SMILES | resistance level (a panel of M^pro mutants) | resistance level against the ISM3312 P18 virus (ISM3312 P18 virus)
1 | Cn1cnc(Cn2c(=O)[nH]/c(=N\c3cc4cn(C)nc4cc3Cl)n(Cc3cc(F)c(F)cc3F)c2=O)n1 [Ensitrelvir] | moderate- to high-levels resistance | 
2 | CC(C)(C)[C@H](NC(=O)C(F)(F)F)C(=O)N1C[C@H]2[C@@H]([C@H]1C(=O)N[C@H](C#N)C[C@@H]1CCNC1=O)C2(C)C [Nirmatrelvir] |  | no resistance (key: white, no resistance ( < threefold); light blue, low-level resistance (3- to 10-fold); Medium blue, moderate-level resistance (10- to 50-fold); dark blue, high-level resistance ( > 50-fold))
